Counter-ions that a name gives are not always drawn. Like-named read-outs stand apart in the source and are kept apart here.
Columns and labels:
cat T1R1/T1R3 receptor = cat T1R1/T1R3 receptor (Felis catus, UniProt E3UMS2); assay: cell-based
Text: HEK293 cells that stably express T1R3 and inducibly express T1R1 were exposed to nucleotide derivatives alone or in combination with one or more amino acids and/or one or more nucleotides to activate the umami receptor. Activation of the T1R1/T1R3 receptor was detected by a change in intracellular calcium levels using a calcium sensitive fluorescent dye and/or a luminescent reporter system. Cells that express T1R3 but not T1R1 were used as a control. A FLIPR® Tetra or a FlexStation® 3 was used for data capture.

T1R1/T1R3 receptor = T1R1/T1R3 receptor (Felis catus, UniProt E3UMS2); assay: cell-based; format: cell-based; conditions: for Max resp % of Ala +IMP (0.2 mM): relative to Ala; for Max resp ΔF/F +Alanine (20 mM) / Thres (mM) +Alanine (20 mM) / Max resp % of IMP +Alanine (20 mM): in the presence of 20 mM alanine; for Max resp % of IMP +Alanine (20 mM): relative to IMP; for activation of T1R1/T1R3 by the compound alone: in words
Text: HEK293 cells that stably express T1R3 and inducibly express T1R1 were exposed to transmembrane compounds alone or in combination with one or more amino acids and/or one or more nucleotides to activate the umami receptor. Activation of the T1R1/T1R3 receptor was detected by a change in intracellular calcium levels using a calcium sensitive fluorescent dye. Cells that express T1R3 but not T1R1 were used as a control. A FLIPR® Tetra or a FlexStation® 3 was used for data capture.
In each experiment, serial dilutions of up to 10 mM of the transmembrane compound were added to the T1R1/T1R3-expressing cells.

[1] = EC50 (mM) +IMP (0.2 mM), in the presence of 0.2 mM IMP
[2] = compound alone in buffer, read-out: EC50 (mM) +buffer (alone)

Structure (SMILES) | Max resp ΔF/F +IMP (0.2 mM) (T1R1/T1R3 receptor; in the presence of 0.2 mM IMP) | Thres (mM) +IMP (0.2 mM) (T1R1/T1R3 receptor; in the presence of 0.2 mM IMP) | Max resp % of Ala +IMP (0.2 mM) (T1R1/T1R3 receptor; in the presence of 0.2 mM IMP) | Max resp ΔF/F +Alanine (20 mM) (T1R1/T1R3 receptor) | Thres (mM) +Alanine (20 mM) (T1R1/T1R3 receptor) | Max resp % of IMP +Alanine (20 mM) (T1R1/T1R3 receptor) | also measured
Nc1ncnc2c1ncn2C1CC(O)C(COP(O)(O)=S)O1 (stereo not shown) [2′-Deoxyadenosine-5′-O-monophosphorothioate] | – | – | – | – | – | – | Thres (cat T1R1/T1R3 receptor): 0.015 mM
CCC(CC)NC(=O)/C=C/c1ccc(OC)cc1 [(E)-3-(4-methoxyphenyl)-N-(pentan-3-yl)acrylamide] | 1.443 | 0.0375 mM | 171.7% | 0.7 | 0.148 mM | 64.1% | –
Nc1nc2c(ncn2[C@H]2C[C@H](O)[C@@H](COP(O)(O)=S)O2)c(=O)[nH]1 [2′-Deoxyguanosine-5′-O-monophosphorothioate (5′-dGMPS)] | – | – | – | – | – | – | Thres (cat T1R1/T1R3 receptor): 0.005 mM
O=c1nc[nH]c2c1ncn2C1O[C@H](COP(=O)(O)OP(=O)(O)OP(=O)(O)O)[C@@H](O)[C@H]1O (stereo partly shown) [inosine triphosphate (ITP) trisodium salt] | – | – | – | – | – | – | Max resp ΔF/F (cat T1R1/T1R3 receptor): 0.3 ΔF/F; Max resp. (ΔF/F) (cat T1R1/T1R3 receptor): 0.3 ΔF/F; Thres (cat T1R1/T1R3 receptor): 0.02 mM; Threshold (cat T1R1/T1R3 receptor): 0.02 mM
O=c1ccn(C2OC(COP(=O)(O)N3CCOCC3)C(O)C2O)c(=O)[nH]1 (stereo not shown) | – | – | – | – | – | – | EC50 (cat T1R1/T1R3 receptor; EC50 (mM), + Alanine (20 mM), Table 15): > 3 mM
CCC(CC)NC(=O)c1ccc(Br)o1 [5-bromo-N-(pentan-3-yl)furan-2-carboxamide] | 1.8425 | 0.3 mM | 149.6% | 1.575 | 1 mM | 126.8% | –
CCCC(C)NC(=O)/C=C/c1ccc(OC)c(OC)c1 (stereo not shown) [(E)-3-(3,4-dimethoxyphenyl)-N-(pentan-2-yl)acrylamide] | 1.07 | 0.55 mM | 86.9% | 0.4375 | 1 mM | 35.2% | EC50 (T1R1/T1R3 receptor): > 10 mM; EC50 (T1R1/T1R3 receptor; [1]): 2.2 mM; EC50 (T1R1/T1R3 receptor; [2]): > 10 mM
Nc1nc2c(ncn2[C@@H]2O[C@H](COP(=O)(O)O)[C@@H](O)[C@H]2O)c(=O)[nH]1 [GMP, guanosine monophosphate, reference compound] | – | – | – | – | – | – | EC50 (cat T1R1/T1R3 receptor; in the presence of 20 mM alanine, read-out: EC50-with Ala): 0.02 mM
CSc1ccc(-c2nnn(Cc3ccccn3)n2)cc1 [2-((5-(4-(methylthio)phenyl)-2H-tetrazol-2-yl)methyl)pyridine] | 0.678 | 0.1575 mM | 80.7% | – | – | – | –
CCC(CC)NC(=O)c1ccc(OC)c(OC)c1 [3,4-dimethoxy-N-(pentan-3-yl)benzamide] | 0.9975 | 0.5 mM | 81.0% | 0.545 | 0.3 mM | 43.9% | –
CCC(CC)NC(=O)c1ccc2c(c1)OCCO2 [N-(pentan-3-yl)-2,3-dihydrobenzo[b][1,4]dioxine-6-carboxamide] | 0.8725 | 0.075 mM | 70.9% | 0.3125 | 0.3 mM | 25.2% | –
CCC(CC)NC(=O)c1ccc(C)c(C)c1 [3,4-dimethyl-N-(pentan-3-yl)benzamide] | 1.5475 | 0.525 mM | 125.7% | 1.2150 | 3 mM | 97.8% | –
CCCC(C)NC(=O)c1ccc(OC)c(C)c1 (stereo not shown) [4-methoxy-3-methyl-N-(pentan-2-yl)benzamide] | 1.5875 | 0.025 mM | 128.9% | 1.5650 | 0.050 mM | 126.0% | –
O=C(NCCc1ccccc1)C(=O)NCc1cccnc1 [N1-phenethyl-N2-(pyridin-3-ylmethyl)oxalamide] | 0.7625 | 0.1 mM | 61.9% | 0.3750 | 1 mM | 30.2% | –
O=C(Nc1ccccc1Br)N[C@@H]1c2ccccc2C[C@@H]1O (stereo in doubt) [1-(2-bromophenyl)-3-((1R,2S)-2-hydroxy-2,3-dihydro-1H-inden-1-yl)urea] | 0.378 | 3 mM | 44.9% | 0.3 | 3 mM | 33.0% | –
COc1ccc(C(=O)NC(C)c2ccccc2)cc1C (stereo not shown) [4-methoxy-3-methyl-N-(1-phenylethyl)benzamide] | 1.1775 | 0.35 mM | 95.6% | 0.51 | 3 mM | 41.0% | –
COC(=O)C(NC(=O)/C=C/c1cccs1)C(C)C (stereo not shown) [(E)-methyl 3-methyl-2-(3-(thiophen-2-yl)acrylamido)butanoate] | 0.7375 | 1 mM | 59.9% | 0.1175 | 10 mM | 9.5% | –
CCCC(CCC)C(=O)Nc1ccc2c(c1)OCO2 [N-(benzo[d][1,3]dioxol-5-yl)-2-propylpentanamide] | 0.908 | 0.0675 mM | 108.0% | – | – | – | activation of T1R1/T1R3 by the compound alone (T1R1/T1R3 receptor): agonist of T1R1/T1R3 alone
COc1cc(C(=O)NC(C(N)=O)c2ccccc2)cc(Cl)c1OC (stereo not shown) [N-(2-amino-2-oxo-1-phenylethyl)-3-chloro-4,5-dimethoxybenzamide] | 0.415 | 0.17 mM | 49.4% | – | – | – | activation of T1R1/T1R3 by the compound alone (T1R1/T1R3 receptor): failed to activate T1R1/T1R3 alone
CC1CCCC(NC(=O)c2ccc3c(c2)OCO3)C1C (stereo not shown) [N-(2,3-dimethylcyclohexyl)benzo[d][1,3]dioxole-5-carboxamide] | 1.175 | 0.275 mM | 95.4% | 0.225 | 3 mM | 18.1% | –
COc1ccc(/C=C/C(=O)NC2CCCCC2C)cc1 (stereo not shown) [(E)-3-(4-methoxyphenyl)-N-(2-methylcyclohexyl)acrylamide] | 1.7725 | 0.3 mM | 144.0% | 0.785 | 3 mM | 63.2% | –
O=C(CN1C(=O)C(=O)N(Cc2ccccc2)C1=O)c1ccccc1 [1-benzyl-3-(2-oxo-2-phenylethyl)imidazolidine-2,4,5-trione] | 1.140 | 0.08 mM | 135.7% | 1.3 | 1 mM | 127.6% | –
CCOC(=O)C(NC(=O)c1ccc2c(c1)OCO2)C(C)C (stereo not shown) [ethyl 2-(benzo[d][1,3]dioxole-5-carboxamido)-3-methylbutanoate] | 0.65 | 1 mM | 52.8% | 0.3175 | 10 mM | 25.6% | EC50 (T1R1/T1R3 receptor): > 10 mM; EC50 (T1R1/T1R3 receptor; [1]): > 3 mM; EC50 (T1R1/T1R3 receptor; [2]): > 10 mM

Reference: patent US20190021380A1 (priority 2014, published 2019)
